One compound from patent publication US12440439B2, “Mesoporous sponge spicule and methods thereof” (Xiamen University, priority 2019, dated 2025) can be followed below.

The nature of this data set: Transdermal penetration enhancement experiments in vitro (Franz diffusion transdermal device, tape peeling, microplate reader). Format: in vitro ADME, pig. Particulars: transdermal for 16 h. The method, then:
Among them, delivery system groups of the second group and the third group are saturated 30% ethanol solutions of the Coumarin 6, and delivery volumes are […].
The aforementioned layers are divided into groups, soaked in 4 mL of a mixture of the phosphate buffer solution and methanol (a volume ratio is 1:1) to respectively extract the Coumarin 6 in a 1st layer of stratum corneum (SC1), 2nd-5th layers of stratum corneum (SC2), 6th-10th layers of stratum corneum (SC3), the epidermal layer (Epi), and the dermal layer (Der) at 200 r/min (revolutions per minutes (rpm)) at room temperature (e.g., 20-30° C.).

The structures appear in SMILES notation.

On to `CCN(CC)c1ccc2cc(-c3nc4ccccc4s3)c(=O)oc2c1` [Control, Coumarin 6], for which the “Content of the Coumarin 6 in SC1” value (1st layer of stratum corneum) is 0.005 ± 0.001 μg/1.77 cm^2. Besides, where the note is “2nd-5th layers of stratum corneum”, the “Content of the Coumarin 6 in SC2” value is recorded as 0.009 ± 0.002 μg/1.77 cm^2. The “Content of the Coumarin 6 in SC3” value (6th-10th layers of stratum corneum) was 0.019 ± 0.003 μg/1.77 cm^2. For the same compound, the “Content of the Coumarin 6, Total” value (all skin layers and receptor compartment) was found to be 0.199 ± 0.047 μg/1.77 cm^2. For the same compound, for the setting “dermal layer”, the “Content of the Coumarin 6 in Der” value came out at 0.015 ± 0.011 μg/1.77 cm^2. Moreover, the “Content of the Coumarin 6 in Epi” value (epidermal layer) is listed as 0.021 ± 0.007 μg/1.77 cm^2. In addition, the “Content of the Coumarin 6 in Rec” value (receptor compartment) is reported as 0.130 ± 0.043 μg/1.77 cm^2.
